Laboratory results from patent publication US6043242A, “Imidazopyridazines” (Byk Gulden Lomberg Chemische Fabrik GmbH, priority 1996, dated 2000).
Values after ≈ are worked out from the molar mass of the structure shown. Where a name gives a salt, the structure may show the parent alone.

Assays:
Helicobacter pylori = experiment: activity against Helicobacter pylori (MIC50), Columbia agar, growth period of 4 days; format: cell-based; settings: 96 h, approx. MIC 50 values, Columbia agar (Oxoid)
Text: The compounds of the formula I were investigated with respect to their activity against Helicobacter pylori following the methodology described by Tomoyuki Iwahi et al. (Antimicrobial Agents and Chemotherapy, 1991, 490-496) using Columbia agar (Oxoid) and with a growth period of 4 days. The approx. MIC 50 values listed in Table A below resulted here for the compounds investigated (the stated numbers of the compounds agree with the example numbers in the description).

Helicobacter fells = experiment: in vivo activity against Helicobacter fells in the mouse (elimination rate); settings: po, 96 h, administered orally at 3×50 mg/kg over the course of 4 days
Experimental: With respect to their in vivo activity against Helicobacter fells in the mouse, the compounds of the formula I were investigated following the methodology described by E. Dick-Hegedus and A. Lee (Scand. J. Gastroenterol. 1991, 26, 909-915). The substances were administered orally at 3×50 mg/kg over the course of 4 days. The elimination rates listed in Table A below resulted here for the compounds investigated: […]

| SMILES | MIC50 (Helicobacter pylori) | responders at 50 mg/kg (Helicobacter fells) |
| --- | --- | --- |
| Cc1c(SCCCSc2ccc3ncc([N+](=O)[O-])n3n2)ccnc1CO [Compound 1, {3-Methyl-4-[3-(3-nitroimidazo[1,2-b]pyridazin-6-ylsulfanyl)propylsulfanyl]pyridin-2-yl}methanol] | 0.05 µg/mL (≈ 0.128 µM) | 100% |
| Cc1c(SCCCSc2ccc3ncc([N+](=O)[O-])n3n2)ccnc1CSc1ncccn1 [Compound 4, 6-{3-[3-Methyl-2-(pyrimidin-2-ylsulfanylmethyl)-pyridin-4-ylsulfanyl]propyisulfanyl)3-nitro-imidazo[1,2-b]pyridazine] | 0.1 µg/mL (≈ 0.206 µM) | 100% |
| COCCOCCSCc1nccc(SCCCSc2ccc3ncc([N+](=O)[O-])n3n2)c1C [Compound 9, 6-(3-}2-[2-(2-Methoxyethoxy)ethylsulfanylmethyl]-3-methylpyridin-4-ylsulfanyl}-propylsulfanyl)-3-nitroimidazo[1,2-b]pyridazine fumarate] | 0.1 µg/mL | 100% |
| Cc1c(OCCCOc2ccc3ncc([N+](=O)[O-])n3n2)cc[n+]([O-])c1C [Compound 13, 6-[3-(2,3-Dimethyl-1-oxypyridin-4-yloxy)propoxy]-3-nitroimidazo[1,2-b]pyridazine] | 0.5 µg/mL (≈ 1.39 µM) | 100% |
| Cc1c(OCCCSc2ccc3ncc([N+](=O)[O-])n3n2)ccnc1CO [Compound 15, {3-Methyl-4-[3-(3-nitroimidazo[1,2-b]pyridazin-6-ylsulfanyl)propoxy]pyridin-2-yl}-methanol] | 0.05 µg/mL (≈ 0.133 µM) | 100% |
| CN(CCSc1ccc2ncc([N+](=O)[O-])n2n1)c1ccnc(CSc2nc3ccccc3[nH]2)c1Cl [Compound 17] | 0.1 µg/mL (≈ 0.19 µM) | 100% |
| CN(CCSc1ccc2ncc([N+](=O)[O-])n2n1)c1ccnc(CSc2ncccn2)c1Cl [Compound 18] | 0.1 µg/mL (≈ 0.205 µM) | 100% |
| Cc1ccnc(SCc2nccc(SCCCSc3ccc4ncc([N+](=O)[O-])n4n3)c2C)n1 [Compound 25, 6-{3-[3-Methyl-2-(4-methyl-pyrimidin-2-ylsulfanylmethyl)-pyridin-4-ylsulfanyl]-propylsulfanyl}-3-nitroimidazo[1,2-b]pyridazine] | 0.05 µg/mL (≈ 0.1 µM) | 100% |
| CN(CCOc1ccc2ncc([N+](=O)[O-])n2n1)c1ccnc(CSc2nc3ccccc3[nH]2)c1Cl.Cl [Compound 27, [2-(1H-benzimidazol-2-ylsulfanylmethyl)-3-chloropyridin-4-yl]-methyl-[2-(3-nitroimidazo[1,2-b]pyridazin-6-yloxy)-ethyl]amine hydrochloride] | 0.1 µg/mL | 100% |
